# Tests used:
# [1] = test system: Norway spruce embryos, cell-lines 95:61:21 (61:21), 19:01 and 28:05; test: Germination (root length) on germination medium after inositol treatment, without partial drying (Example 5); assay type: cell-based
# Description: Then 15, embryos from each concentration of inositol were transferred to germination medium (same as the prematuration medium). The progress of germination was measured by root length after 11, days on germination medium. Germination was fastest for the embryos that had been treated with 0.25, M inositol FIG. 6a. The difference between the root lengths after treatment at the three highest concentrations compared with those at the three lowest concentrations was highly significant by t-test (P<0.001). The experiment was repeated with another replicate of cell-line 61:21. This time, the inositol treatment was for 25, days, the small clumps of embryos were transferred to prematuration medium for 9, days, then 10, embryos were individually planted on prematuration medium and root length was measured 29, days later. […] The length of inositol treatment was 16, days for both lines. Root length was measured 12, or 14, days according to cell-line after transfer of 20, embryos for each concentration of inositol to prematuration medium for germination. For all four experiments of Example 5, root length after treatments of 0.2, to 0.3 M inositol was compared to root length after treatments with 0, to 0.1, M inositol in a paired t-test. […] The inventors have compared on a small scale the germination of inositol-treated embryos with partially dried embryos that have been matured by standard procedures.
# [2] = test system: embryogenic cultures of cell-line 06:28:05; test: Maturation in temporary-immersion bioreactors, DKM+ABA then DKM+0.25 M inositol+ABA, then germination (Example 2); assay type: cell-based, Norway spruce
# Description: Several experiments were performed to confirm the observations of Example 1 and to refine the novel culture method. Subsequent experiments confirm that the process of bombardment itself has no effect additional to the inclusion of 0.25, M myo-inositol in the medium. In the present experiment, embryogenic cultures of the same cell-line 06:28:05, were matured in bioreactors that enabled periodic temporary submersion in liquid DKM containing ABA. In two bioreactors, the embryos were matured for 38, days in DKM+ABA, then for 25 days in DKM+0.25, M inositol+ABA. In two control bioreactors, the cultures were maintained continuously in DKM+ABA, without the inositol treatment.
# Embryos from the experimental and control reactors were placed on solid germination media in petri dishes mainly to optimize germination media. Plantlet quality was assessed after 6, days' germination as ‘bent’ or ‘not bent’. Whereas only 12, out of 134, (9%) inositol-treated embryos developed into bent plantlets, 50, out of 140, (36%) of the control embryos developed into bent plantlets. The difference was highly significant (P<0.0001) by Fisher's contingency test.
# [3] = 0.25 M inositol, after 6 days' germination, out of 134 embryos
compound,measurement,setting,value
"O[C@H]1[C@H](O)[C@@H](O)[C@H](O)[C@@H](O)[C@H]1O [inositol, cis-1,2,3,5-trans-4,6-cyclohexanehexol]",root length after 0.2 to 0.3 M inositol compared with 0 to 0.1 M inositol,"[1]; all four experiments of Example 5, paired t-test, P<0.03",significantly greater
same,"germination, measured by root length after 11 days on germination medium","[1]; cell-line 95:61:21, 0.25 M inositol for 17 days, 15 embryos, FIG. 6a",fastest
same,subsequent root growth on germination medium,"[1]; cell-lines 19:01 and 28:05, 16 days inositol, root length at 12 or 14 days, FIGS. 6c, 6d",advantages of treatment with high concentrations of inositol for subsequent root growth
same,"rooting, root length measured 29 days after planting on prematuration medium","[1]; replicate of cell-line 61:21, 0.25 M inositol for 25 days, 10 embryos, FIG. 6b",rooting fastest
same,germination compared with partially dried embryos matured by standard procedures,[1]; small scale comparison,shoots grow faster and more vigorously
same,embryos that developed into bent plantlets (number),[2]; [3],12
same,embryos that developed into bent plantlets (percent),[2]; [3],9%
same,embryo appearance compared with controls,"[2]; 38 days DKM+ABA then 25 days DKM+0.25 M inositol+ABA, bioreactors","strikingly more uniform, and broader in relation to length"
same,yield of high-quality embryos relative to untreated controls,"[2]; bioreactor experiment, 0.25 M inositol",six to eight

# Source: patent US9125352B2, “Method for maturing and synchronizing conifer somatic embryos” (SweTree Technologies AB, priority 2010, dated 2015)
